Data on twelve molecules can be found in patent US20240287070A1, “FUSED HETEROCYCLIC DERIVATIVES” (Janssen Sciences Ireland Unlimited Company, priority 2021, published 2024).

Usually CC50 stands for the concentration at which the toxic effect on the cells reaches its halfway point. In general, EC50 refers to the concentration that produces a half-maximal response. The low end stands for an effect from little substance, the high end for a need for much substance.

A short description of data set [1]: Human liver microsome stability. Format: in vitro ADME. As to conditions: 1 μM compound, NADPH 1 mM, 37° C., 0-60 min; for half-life at 1 μM: human, pooled human liver microsomes, pH 7.4, pooled human liver microsomes 0.5 mg/mL, read-out: HLM Metabolism t1/2; for HLM Metabolism t1/2: pooled human liver microsomes 0.5 mg/mL. As to the method: Human Liver Microsome Stability t½ (Min) of Compounds of Formula (I) […] All incubations are performed singularly for each compound. NADPH was added to initiate the reaction with the final concentration of 1 mM and the final incubation volume of 400 μL. At 6 time points (0, 5, 10, 20, 40 and 60 min) reactions were stopped by the removal of 50 μL of the incubation mixture into plates containing acetonitrile at a of 1:3 (v:v). The plates were centrifuged at 3000 rpm for 10 min at 4° C. to precipitate the protein. Following protein precipitation, the sample supernatants were combined in cassettes of up to 8 compounds. The internal standard was added (1:1 supernatant to internal standard solution) and samples were analyzed using standard LC-MS conditions. From a plot of ln peak area ratio (compound peak area/internal standard peak area) against time, the gradient of the line is determined. Subsequently, half-life is calculated using the equations below: Elimination rate constant (k)=(−gradient) […]
On the technique in general: Liver microsomes are a subcellular fraction often used to study metabolism.

Data set [2] is described as follows: Cytotoxicity, ATPlite Luminescence Assay. Format: cell-based, human. As to conditions: human, HepG2 or HepG2.117 cells, 3-days incubation unless marked with *. As to the method:
Cytotoxicity of the compounds was tested using HepG2 or HepG2.117 cells, incubated for 3 or 4 days in the presence of compounds. The viability of the cells was assessed using the PERKIN ELMER ATPlite Luminescence Assay System.”

Data set [3] concerns HBV (HepG2.117 cell line, inducibly HBV producing). Nature of the data set: Anti-HBV activity, intracellular HBV DNA by real-time PCR in HepG2.117 cell line. Format: cell-based, hepatitis B virus. To be noted: HepG2.117 cells, 3 days of treatment. As for the experimental part: The anti HBV activity was measured using the HepG2.117 cell line, a stable, inducibly HBV producing cell line, which replicates HBV in the absence of doxycycline (Tet-off system). The HepG2 cell line is available from ATCCR under number HB-8065. Transfection of the HepG2 cell line can be as described in Sun and Nassal 2006 Journal of Hepatology 45 (2006) 636-645 “Stable HepG2- and Huh7-based human hepatoma cell lines for efficient regulated expression of infectious hepatitis B virus”.
For the antiviral assay, HBV replication was induced, followed by a treatment with serially diluted compound in 96-well plates. After 3 days of treatment, the antiviral activity was determined by quantification of intracellular HBV DNA using real-time PCR and an HBV specific primer set and probe.

Setting [4] is: Hepatitis B virus, HepG2.117, 72 h.

`CNC(=O)C1(Oc2ccc(C(C)N3C[C@@H](C)n4nc5c(c4C3=O)CN(C(=O)c3ccc(Cl)c(C#N)c3)[C@H](C)C5)cc2)CC1` (single isomer, unassigned) [Compound 13A, 1-(4-((R*)-1-((3R,7R)-2-(4-chloro-3-cyanobenzoyl)-3,7-dimethyl-10-oxo-1,2,3,4,7,8-hexahydropyrido[4′,3′:3,4]pyrazolo[1,5-a]pyrazin-9(10H)-yl)ethyl)phenoxy)-N-methylcyclopropanecarboxamide]: the half-life at 1 μM in data set [1] was determined as 113 min. For the same molecule, in data set [2], the CC50 at 3 days is more than 50 µM. The molecule further registered a concentration giving a half-maximal response (EC50) in data set [3] of 0.037 µM.

With `CC(c1ccc(C2(O)CC2)cc1)N1C[C@@H](C)n2nc3c(c2C1=O)CN(C(=O)c1ccc(Cl)c(C#N)c1)[C@H](C)C3` (single isomer, unassigned) [Compound 14A, 2-Chloro-5-((3R,7R)-9-((R*)-1-(4-(1-hydroxycyclopropyl)phenyl)ethyl)-3,7-dimethyl-10-oxo-1,2,3,4,7,8,9,10-octahydropyrido[4′,3′:3,4]pyrazolo[1,5-a]pyrazine-2-carbonyl)benzonitrile], the half-life at 1 μM in data set [1] is 82 min. Besides, the CC50 at 3 days in data set [2] was more than 50 µM. In data set [3] (setting [4]), this molecule returned an EC50 of 0.012 µM.

Turning to `CC(c1ccc(S(C)(=O)=O)cc1)N1C[C@@H](C)n2nc3c(c2C1=O)CN(C(=O)c1ccc(Cl)c(Cl)c1)[C@H](C)C3` (single isomer, unassigned) [Compound 15A, (3R,7R)-2-(3,4-dichlorobenzoyl)-3,7-dimethyl-9-((R*)-1-(4-(methylsulfonyl)phenyl)ethyl)-1,2,3,4,8,9-hexahydropyrido[4′,3′:3,4]pyrazolo[1,5-a]pyrazin-10(7H)-one], the half-life at 1 μM in data set [1] is more than 180 min. In addition, in data set [2], the CC50 at 3 days was more than 50 µM. Besides, the EC50 in data set [3] was 0.063 µM.

With `CC(c1ccc(S(N)(=O)=O)cc1)N1C[C@@H](C)n2nc3c(c2C1=O)CN(C(=O)c1ccc(Cl)c(Cl)c1)[C@H](C)C3` (single isomer, unassigned) [Compound 16A, 4-((R*)-1-((3R,7R)-2-(3,4-dichlorobenzoyl)-3,7-dimethyl-10-oxo-1,2,3,4,7,8-hexahydropyrido[4′,3′:3,4]pyrazolo[1,5-a]pyrazin-9(10H)-yl)ethyl)benzenesulfonamide], the half-life at 1 μM in data set [1] is more than 180 min. The molecule further yielded a CC50 at 3 days in data set [2] of more than 50 µM. The same molecule gave a 50% effective concentration (EC50) in data set [3] (setting [4]) of 0.061 µM.

As to `CNS(=O)(=O)c1ccc(C(C)N2C[C@@H](C)n3nc4c(c3C2=O)CN(C(=O)c2ccc(Cl)c(Cl)c2)[C@H](C)C4)cc1` (single isomer, unassigned) [Compound 17A, 4-((R*)-1-((3R,7R)-2-(3,4-dichlorobenzoyl)-3,7-dimethyl-10-oxo-1,3,4,7,8,10-hexahydropyrido[4′,3′:3,4]pyrazolo[1,5-a]pyrazin-9(2H)-yl)ethyl)-N-methylbenzenesulfonamide], the half-life at 1 μM in data set [1] came to 174 min. The CC50 at 3 days in data set [2] is more than 50 µM. In data set [3], the EC50 was determined as 0.077 µM.

Consider `CC(c1ccc(-c2ccn(C)n2)cc1)N1C[C@@H](C)n2nc3c(c2C1=O)CN(C(=O)c1ccc(Cl)c(C#N)c1)[C@H](C)C3` (single isomer, unassigned) [Compound 21A, 2-Chloro-5-((3R,7R)-3,7-dimethyl-9-((R*)-1-(4-(1-methyl-1H-pyrazol-3-yl)phenyl)ethyl)-10-oxo-1,2,3,4,7,8,9,10-octahydropyrido[4′,3′:3,4]pyrazolo[1,5-a]pyrazine-2-carbonyl)benzonitrile], for which, in data set [1], the “HLM Metabolism t1/2” value worked out at 58.8 min. In addition, in data set [2], the CC50 at 3 days was more than 50 µM. The molecule further yielded an EC50 in data set [3] of 0.035 µM.

In the case of `Cc1nnn(-c2ccc(C(C)N3C[C@@H](C)n4nc5c(c4C3=O)CN(C(=O)c3ccc(Cl)c(Cl)c3)[C@H](C)C5)cc2)n1` (single isomer, unassigned) [Compound 22A, (3R,7R)-2-(3,4-dichlorobenzoyl)-3,7-dimethyl-9-((R*)-1-(4-(5-methyl-2H-tetrazol-2-yl)phenyl)ethyl)-1,2,3,4,8,9-hexahydropyrido[4′,3′:3,4]pyrazolo[1,5-a]pyrazin-10(7H)-one], in data set [1], the half-life at 1 μM worked out at 81.1 min. In data set [2], the CC50 at 3 days is more than 50 µM. Further, the EC50 in data set [3] (setting [4]) came to 0.034 µM.

In the case of `CNC(=O)C(c1ccc(OC(F)F)cc1)N1C[C@@H](C)n2nc3c(c2C1=O)CN(C(=O)c1ccc(Cl)c(Cl)c1)[C@H](C)C3` (single isomer, unassigned) [Compound 23A, (R*)-2-((3R,7R)-2-(3,4-dichlorobenzoyl)-3,7-dimethyl-10-oxo-1,3,4,7,8,10-hexahydropyrido[4′,3′:3,4]pyrazolo[1,5-a]pyrazin-9(2H)-yl)-2-(4-(difluoromethoxy)phenyl)-N-methylacetamide], the half-life at 1 μM in data set [1] came out at 113 min. In data set [2], this molecule showed a CC50 at 3 days of 32.1 µM. In data set [3], this molecule yielded an EC50 of 0.066 µM.

`CNC(=O)c1ccc(C(C)N2C[C@@H](C)n3nc4c(c3C2=O)CN(C(=O)c2ccc(Cl)c(Cl)c2)[C@H](C)C4)cn1` (single isomer, unassigned) [Compound 24A, 5-((R*)-1-((3R,7R)-2-(3,4-dichlorobenzoyl)-3,7-dimethyl-10-oxo-1,3,4,7,8,10-hexahydropyrido[4′,3′:3,4]pyrazolo[1,5-a]pyrazin-9(2H)-yl)ethyl)-N-methylpicolinamide]: the half-life at 1 μM in data set [1] is more than 180 min. Besides, the half-maximal cytotoxic concentration (CC50) at 3 days in data set [2] was more than 50 µM. Also, a half-maximal effect in data set [3] (setting [4]) (EC50) was put at 0.038 µM.

As to `Cc1nnn(-c2ccc(C(C)N3C[C@@H](C)n4nc5c(c4C3=O)CN(C(=O)c3ccc(Cl)c(Cl)c3)[C@H](C)C5)cn2)n1` (single isomer, unassigned) [Compound 26A, (3R,7R)-2-(3,4-dichlorobenzoyl)-3,7-dimethyl-9-((R*)-1-(6-(5-methyl-2H-tetrazol-2-yl)pyridin-3-yl)ethyl)-1,2,3,4,8,9-hexahydropyrido[4′,3′:3,4]pyrazolo[1,5-a]pyrazin-10(7H)-one], the half-life at 1 μM in data set [1] was 82.9 min. Also, in data set [2], the half-maximal cytotoxic concentration (CC50) at 3 days is more than 50 µM. Besides, a half-maximal effect in data set [3] (EC50) was put at 0.14 µM.

With `Cc1nnnn1-c1ccc(C(C)N2C[C@@H](C)n3nc4c(c3C2=O)CN(C(=O)c2ccc(Cl)c(Cl)c2)[C@H](C)C4)cn1` (single isomer, unassigned) [Compound 27A, (3R,7R)-2-(3,4-dichlorobenzoyl)-3,7-dimethyl-9-((R*)-1-(6-(5-methyl-1H-tetrazol-1-yl)pyridin-3-yl)ethyl)-1,2,3,4,8,9-hexahydropyrido[4′,3′:3,4]pyrazolo[1,5-a]pyrazin-10(7H)-one], in data set [1], the “HLM Metabolism t1/2” value is recorded as more than 180 min. In data set [2], this molecule returned a CC50 at 3 days of more than 50 µM. In data set [3], the EC50 was determined as 0.24 µM.

In the case of `CC(c1ccc(N2CCCS2(=O)=O)nc1)N1C[C@@H](C)n2nc3c(c2C1=O)CN(C(=O)c1ccc(Cl)c(C(F)(F)F)c1)[C@H](C)C3` (single isomer, unassigned) [Compound 28A, (3R,7R)-2-(4-chloro-3-(trifluoromethyl)benzoyl)-9-((R*)-1-(6-(1,1-dioxidoisothiazolidin-2-yl)pyridin-3-yl)ethyl)-3,7-dimethyl-1,2,3,4,8,9-hexahydropyrido[4′,3′: 3,4]pyrazolo[1,5-a]pyrazin-10(7H)-one], in data set [1], the “HLM Metabolism t1/2” value is recorded as 50.1 min. The molecule also came in with a half-maximal cytotoxic concentration (CC50) at 3 days in data set [2] of more than 50 µM. This molecule also displayed an EC50 in data set [3] (setting [4]) of 0.012 µM.
